The target in this assay is T1, RIG-I (Homo sapiens, UniProt O95786).
T1 construct: gene RIGI
T1 sequence (O95786 1-925): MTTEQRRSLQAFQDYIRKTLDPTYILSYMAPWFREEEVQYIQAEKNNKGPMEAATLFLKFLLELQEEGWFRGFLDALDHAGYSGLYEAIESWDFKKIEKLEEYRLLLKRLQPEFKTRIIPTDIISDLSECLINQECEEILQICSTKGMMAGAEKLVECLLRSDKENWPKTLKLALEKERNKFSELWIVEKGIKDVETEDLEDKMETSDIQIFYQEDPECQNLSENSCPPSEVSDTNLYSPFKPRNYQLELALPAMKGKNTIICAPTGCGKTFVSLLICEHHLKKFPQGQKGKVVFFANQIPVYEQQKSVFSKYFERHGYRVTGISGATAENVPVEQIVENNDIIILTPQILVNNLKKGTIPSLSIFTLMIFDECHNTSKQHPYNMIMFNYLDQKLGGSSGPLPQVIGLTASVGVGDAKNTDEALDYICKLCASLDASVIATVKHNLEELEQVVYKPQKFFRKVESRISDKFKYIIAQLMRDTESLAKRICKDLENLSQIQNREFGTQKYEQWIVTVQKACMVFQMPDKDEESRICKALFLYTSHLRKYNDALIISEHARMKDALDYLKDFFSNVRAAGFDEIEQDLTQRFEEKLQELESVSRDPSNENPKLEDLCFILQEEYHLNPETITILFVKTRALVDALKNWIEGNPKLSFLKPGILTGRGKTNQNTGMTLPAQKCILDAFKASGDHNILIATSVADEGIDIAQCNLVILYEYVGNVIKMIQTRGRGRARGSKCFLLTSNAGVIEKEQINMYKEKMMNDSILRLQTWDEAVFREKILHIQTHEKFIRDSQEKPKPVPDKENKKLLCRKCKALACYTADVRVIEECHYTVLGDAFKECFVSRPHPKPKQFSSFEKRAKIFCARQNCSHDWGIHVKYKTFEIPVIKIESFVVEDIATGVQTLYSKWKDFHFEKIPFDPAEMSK
The assay is described as follows: microscale thermophoresis (Monolith NT.[…]). The assay is classed as binding. Background: Microscale thermophoresis detects binding through changes in fluorescence in a small temperature gradient.

By Kd is commonly meant the free concentration of one partner at which half of the binding sites on the other are occupied at equilibrium, for simple one-to-one binding.

As to `NC(=O)C[C@H](N)C(=O)O` [asparagine], the Kd was 303 µM.

The record behind these values is paper PMC11996873, “Asparagine drives immune evasion in bladder cancer via RIG-I stability and type I IFN signaling” (The Journal of Clinical Investigation, 2025).
